Each block holds one molecule with its values, some of them ahead of it.
Experiments:
[1] = system: T1, 20S proteasome; assay: […] activity with SUC-LLVY-AMC in lysate after […] h treatment of intact COS-7 cells; format: cell-based; settings: 37 °C; reversible; chymotrypsin-like activity
T1 construct: gene PSMB5; endogenous 20S proteasome of hOAT3-expressing COS-7 cells; activity read in lysate of drug-treated cells with SUC-LLVY-AMC (chymotrypsin-like, beta5); complex of 28 subunits

[2] = molecular target: T2, OAT3 (hOAT3) (Homo sapiens, UniProt Q8TCC7); assay: cis-inhibition of [3H]estrone sulfate uptake in hOAT3-expressing COS-7 cells, […] min; format: cell-based
T2 construct: gene SLC22A8; full-length human OAT3 with fused Myc tag, stably expressed in COS-7 cells; ~80 kDa on blot
T2 sequence (Q8TCC7 1-542): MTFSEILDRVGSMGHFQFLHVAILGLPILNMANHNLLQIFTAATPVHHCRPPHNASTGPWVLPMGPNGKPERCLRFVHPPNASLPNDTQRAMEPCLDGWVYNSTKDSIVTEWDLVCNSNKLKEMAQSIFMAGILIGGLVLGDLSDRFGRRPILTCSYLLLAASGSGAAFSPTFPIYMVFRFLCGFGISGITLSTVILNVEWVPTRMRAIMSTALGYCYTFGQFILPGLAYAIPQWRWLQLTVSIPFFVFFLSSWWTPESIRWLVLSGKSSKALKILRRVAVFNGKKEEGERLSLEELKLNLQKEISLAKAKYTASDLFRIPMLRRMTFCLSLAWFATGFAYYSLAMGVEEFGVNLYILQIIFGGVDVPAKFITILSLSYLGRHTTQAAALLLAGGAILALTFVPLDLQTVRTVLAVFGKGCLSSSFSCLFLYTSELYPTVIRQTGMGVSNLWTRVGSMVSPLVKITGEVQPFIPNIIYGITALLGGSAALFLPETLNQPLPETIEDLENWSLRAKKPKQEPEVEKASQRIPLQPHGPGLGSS

[3] = substrate: C[C@]12CC[C@@H]3c4ccc(OS(=O)(=O)O)cc4CC[C@H]3[C@@H]1CCC2=O; assay: cells, lysate or membranes; format: cell-based, Homo sapiens; settings: untreated cells; PBS/Ca2+/Mg2+; 0.3-10 µM; labelled compound (3H); parental-cell uptake subtracted

Molecule: CC(C)C[C@H](NC(=O)[C@@H](NC(=O)c1cccc(-c2ccccc2)n1)[C@@H](C)O)B(O)O [delanzomib]
% inhibition at 30 nM [1]: 61 (95% CI: 57 to 65)

Molecule: CC(C)C[C@H](NC(=O)CNC(=O)c1cc(Cl)ccc1Cl)B(O)O [ixazomib]
% inhibition at 30 nM [1]: 50 (95% CI: 46 to 54)

inhibition at 5 µM [2]: 40%
Molecule: CCCN(CCC)S(=O)(=O)c1ccc(C(=O)O)cc1 [probenecid]

B1: OAT3 (hOAT3) (Homo sapiens) (protein)
chain: T2 sequence (Q8TCC7 1-542)
notes: full-length human OAT3 with fused Myc tag, stably expressed in COS-7 cells; ~80 kDa on blot
Km [3]: 4.2 ± 0.3 µM

— article PMC7997269, “Oral Proteasomal Inhibitors Ixazomib, Oprozomib, and Delanzomib Upregulate the Function of Organic Anion Transporter 3 (OAT3): Implications in OAT3-Mediated Drug-Drug Interactions” (Pharmaceutics, 2021)
